≈ marks a conversion by molar mass, not a printed value. Where two headings read alike, the source gives them in different places.
What was measured:
[1] = MTT cell viability run in parallel with the Tat-hybrid assay; assay type: cell-based; settings: human, Tat-hybrid reporter cell lines (HeLa); for CC50 at 48 h: Table 5, read-out: Tat hybrid TC50; for EC50 at 48 h: Table 6, second 'EC50' entry of the cell, values D/E
Protocol: (§1) Cells were counted and plated into white 384-well or 96-well cell-culture treated assay plates and compounds were added. After 48 hours, the cells were prepared for luminescence assays that were performed on a plate reader (Tecan Evolution or MD Analyst). The cytotoxicity of each compound was determined in parallel via MTT-based cell viability assays.
as §1, with “Tat hybrid reporter assay. […] Previously characterized thienopyridines and diaminoacridine were used as controls. Cells” for “Cells”, “384-well” for “384-well or 96-well”, “lumincescence” for “luminescence”, “assays. […]” for “assays.”

[2] = MTT cell viability in parallel with the U1 assay; assay type: cell-based; settings: human, U1 cells, read-out: U1 TC50
Protocol: (§2) U1 activation assay. U1 cells obtained from the AIDS Research and Reference Reagent Program were maintained under standard culture conditions in RPMI 1640 supplemented with 10% fetal bovine serum (heat inactivated), 2 mM L-glutamine, 100U/mL penicillin and 100 μg/mL streptomycin. U1 cells contain an integrated copy of a phorbol ester inducible HIV-1 provirus and addition of phytohemagglutinin (PHA) to the cell culture was used to induce virus production. On the day of the assay, the U1 cells were activated with PHA and 250,000 cells were plated in 96-well plates. Test compounds were diluted in media and applied to the cells at final concentrations from 1 to 10,000 nM. Cultures were incubated for 3 days and supernatants harvested. Cell-free virus production was measured by p24 ELISA on culture supernatant. Compound toxicity was determined by MTT cell-viability assay in parallel assays.

[3] = tested on: HIV-1 provirus in U1 cells; assay: U1 activation (latency) assay, p24 ELISA; assay type: cell-based
Protocol: as §2

[4] = MTT cell viability in Jurkat replication assay; assay type: cell-based; settings: human, Jurkat (E6-1) cells, pH 7.4
Protocol: (§3) Virus spreading assay. Jurkat (E6-1) cells (NIH AIDS Reagent Program) were cultured in RPMI media supplemented with 25 mM HEPES pH 7.4, 10% heat-inactivated fetal calf serum (Hyclone, Waltham Mass.), and 1% penicillin/streptomycin. 2.5×10^5 Jurkat cells were inoculated with 250 pg p24 in 250 μl media in a 96-well flat bottom polystyrene cell culture microplate. Input virus was removed after 18 hours via washing cells phosphate-buffered saline (PBS). Cells were resuspended in 250 μl of media containing compounds at the described concentrations. Cells were incubated at 37° C., 5% CO2 and supernatant samples were removed every 48 hours and replaced with fresh media containing the compounds. Viral replication was quantified using ELISA to quantify p24 viral capsid protein in the culture supernatant. Mouse monoclonal and rabbit polyclonal α-p24 antibodies used in the ELISA were obtained from the NIH AIDS Reagent Program. Toxicity was monitored using the MTT cell viability assay (Mosmann, T. (1983). J Immunol Methods 65, 55-63).

HIV-1 isolate NL4-3 = assay: Virus spreading / replication assay in Jurkat cells, p24 ELISA; assay type: cell-based
Protocol: as §3

[5] = tested on: Tat-hybrid reporter cell lines (HeLa); assay: MTT cell viability run in parallel with the Tat-hybrid assay; assay type: cell-based; settings: Table 6; at 50,000 nM
Protocol: as §1
as §1, with “Tat hybrid reporter assay. […] Previously characterized thienopyridines and diaminoacridine were used as controls. Cells” for “Cells”, “384-well” for “384-well or 96-well”, “lumincescence” for “luminescence”, “assays. […]” for “assays.”

[6] = Human liver microsome stability; assay type: in vitro ADME; settings: human liver microsomes; read-out: HLM T1/2
Text: The more lipophilic analogs 4a and 4e also appear more prone to oxidative metabolism in the presence of human liver microsomes. This is perhaps unsurprising given the presence of methoxyphenyl (4a) and benzylic methylene (4e) functions, both potential sites of oxidative metabolism.

[7] = Aqueous solubility pH 7.4; assay type: physicochemical; settings: aqueous solution, pH 7.4, pH 7.4, aqueous buffer
Text: (§4) We next evaluated analogs 2b, 2f, 4a, and 4e in a panel of standard in vitro ADME assays to assess drug-like properties and the potential for efficacy in animals.

Caco-2 permeability = assay type: in vitro ADME; settings: human
Text: as §4

Jurkat cells = assay: MTT cell viability in Jurkat replication assay; assay type: cell-based; settings: Table 5; read-out: Jurkat TC50
Protocol: as §3

[8] = Human immunodeficiency virus 1, Table 5, read-out: U1 IC50
[9] = Human immunodeficiency virus 1, NL43, Jurkat, Table 5, read-out: Jurkat replication IC50
[10] = Human immunodeficiency virus 1, Table 6, read-out: U1 IC50
[11] = Human immunodeficiency virus 1, read-out: U1 cell IC50 (nM)

Structure (SMILES)	CC50 at 48 h [1]	CC50 at 3 days ([2]; Table 5)	IC50 [3, 8]	IC50 (HIV-1 isolate NL4-3; [9])	further results
NC(=O)c1cc2c(-c3ccc4ccccc4c3)cncc2s1	> 40 µM	< 40 µM	< 100 nM	< 0.1 µM	CC50 ([4]; Table 5, read-out: Jurkat TC50): < 40 µM
NC(=O)c1cc2c(-c3cnc4ccccc4c3)cncc2s1	> 40 µM	> 40 µM	< 100 nM	< 0.1 µM	CC50 ([4]; Table 5, read-out: Jurkat TC50): > 40 µM
CCc1c(C)nc2sc(C(N)=O)c(N)c2c1C					EC50 at 48 h [1]: > 40 µM; Tat hybrid cell viability at 50,000 nM [5]: Y (Y = 30-60%); CC50 at 3 days ([2]; Table 6): > 40 µM; IC50 [3, 10]: > 500 nM
NC(=O)c1sc2nccc(Nc3ccccc3)c2c1N					EC50 at 48 h [1]: > 40 µM; Tat hybrid cell viability at 50,000 nM [5]: Y (Y = 30-60%); CC50 at 3 days ([2]; Table 6): > 40 µM; IC50 [3, 10]: 100 to 500 nM
COCc1cc(C)nc2sc(C(N)=O)c(N)c12					EC50 at 48 h [1]: > 40 µM; Tat hybrid cell viability at 50,000 nM [5]: X (X = >60%); CC50 at 3 days ([2]; Table 6): > 40 µM; IC50 [3, 10]: > 500 nM
NC(=O)c1sc2nc3c(c(-c4ccco4)c2c1N)CCCC3					EC50 at 48 h [1]: > 40 µM; Tat hybrid cell viability at 50,000 nM [5]: X (X = >60%); CC50 at 3 days ([2]; Table 6): < 40 µM; IC50 [3, 10]: > 500 nM
Cc1cc(C)c2c(N)c(C(N)=O)sc2n1					EC50 at 48 h [1]: > 40 µM; Tat hybrid cell viability at 50,000 nM [5]: Z (Z = <30%); CC50 at 3 days ([2]; Table 6): > 40 µM; IC50 [3, 10]: > 500 nM
NC(=O)c1sc2cncc(N3CCCCC3)c2c1N [Compound 2b, 3-amino-4-(piperidin-1-yl)thieno[2,3-c]pyridine-2-carboxamide]					IC50 [3, 11]: < 100 nM; IC50 ([3]; Human immunodeficiency virus 1, read-out: IC50 in the U1 assay): 28 nM; CC50 ([4]; Jurkat infectivity assay, read-out: TC50 (MTT cell viability)): > 40 µM; half-life [6]: 28 min; solubility [7]: 34 µM (≈ 9.4 µg/mL); IC50 (HIV-1 isolate NL4-3; Human immunodeficiency virus 1, NL43, Jurkat, Table 2, NL4-3, read-out: Jurkat HIV-1 replication assay): < 0.1 µM; IC50 (HIV-1 isolate NL4-3; Human immunodeficiency virus 1, NL43, Jurkat, read-out: IC50 in the HIV replication assay): 0.0768 µM; IC50 (HIV-1 isolate NL4-3; Table 1, read-out: Jurkat HIV-1 replication assay): < 0.1 µM; Papp (Caco-2 permeability): 50.5 ×10⁻⁶ cm/s
CC(=O)N1CCN(c2cncc3sc(C(N)=O)c(N)c23)CC1 [Compound 2f, 4-(4-acetylpiperazin-1-yl)-3-aminothieno[2,3-c]pyridine-2-carboxamide]					IC50 [3, 11]: 100 to 500 nM; half-life [6]: > 60 min; solubility [7]: 258 µM (≈ 82.4 µg/mL); IC50 (HIV-1 isolate NL4-3; Human immunodeficiency virus 1, NL43, Jurkat, Table 1, read-out: Jurkat HIV-1 replication assay): > 0.5 µM; Papp (Caco-2 permeability): 9.7 ×10⁻⁶ cm/s
NC(=O)c1cc2c(-c3ccc4c(c3)CCO4)cncc2s1 [drawing 128]	> 40 µM	< 40 µM	< 100 nM	< 0.1 µM	CC50 (Jurkat cells): < 40 µM
COc1ccc(-c2cncc3sc(C(N)=O)cc23)cc1 [drawing 129]	< 40 µM	< 40 µM	< 100 nM	< 0.1 µM	CC50 ([4]; Table 5, read-out: Jurkat TC50): < 40 µM
NC(=O)c1sc2cncc(N3CCCCC3)c2c1N [drawing 134]	> 40 µM	< 40 µM	< 100 nM	< 0.1 µM	CC50 (Jurkat cells): > 40 µM
CC(=O)N1CCN(c2cncc3sc(C(N)=O)c(N)c23)CC1 [drawing 144]	> 40 µM	> 40 µM	100 to 500 nM	> 0.5 µM	CC50 ([4]; Table 5, read-out: Jurkat TC50): > 40 µM
CN(C)c1ccnc2sc(C(N)=O)c(N)c12 [drawing 152]	> 40 µM	> 40 µM	> 500 nM		
NC(=O)c1sc2cncc(-c3ccc4c(c3)OCO4)c2c1N [drawing 157]	< 40 µM	> 40 µM	100 to 500 nM		
NC(=O)c1sc2cncc(N3CCC(C(N)=O)CC3)c2c1N [drawing 158]	< 40 µM	> 40 µM	100 to 500 nM		
NC(=O)c1sc2cncc(N3CCC(F)(F)CC3)c2c1N [drawing 159]	< 40 µM	> 40 µM	100 to 500 nM		
NC(=O)c1sc2cncc(N3CCC4(CC3)OCCO4)c2c1N [drawing 161]	< 40 µM	> 40 µM	100 to 500 nM		
N#Cc1ccccc1-c1cncc2sc(C(N)=O)cc12 [drawing 164]	> 40 µM	> 40 µM	> 500 nM		
Cc1noc(C2CCCN(c3cncc4sc(C(N)=O)c(N)c34)C2)n1 (stereo not shown) [drawing 169]	< 40 µM	> 40 µM	> 500 nM		
